Laboratory results: ChEMBL document CHEMBL1201862, “PubChem BioAssay data set” (2004)
Active and inactive are the calls of the source.

Tests used:
[1] = Luminescence Cell-Based Dose Retest to Confirm Inhibitors of Cancer Stem Cells. [Related pubchem assays (depositor defined):AID2717, AID2721]; format: functional; conditions: Homo sapiens
[2] = cytotoxicity in HEK-293T cells, dose response, cytotoxicity control for TCR NF-kB inhibitor project, luminescence, T-cell screen hits (AID 489026); format: functional, cell-based;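 also: cells exposed to compound about 14 hours before the viability readout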
[3] = target: T1, Zinc finger protein mex-5 (Caenorhabditis elegans, UniProt Q9XUB2); test: MEX-5/TCR-2 RNA interaction inhibitors, dose response, biochemical, C. elegans, fluorescence polarization (AID 1960)
T1 sequence (Q9XUB2 whole entry): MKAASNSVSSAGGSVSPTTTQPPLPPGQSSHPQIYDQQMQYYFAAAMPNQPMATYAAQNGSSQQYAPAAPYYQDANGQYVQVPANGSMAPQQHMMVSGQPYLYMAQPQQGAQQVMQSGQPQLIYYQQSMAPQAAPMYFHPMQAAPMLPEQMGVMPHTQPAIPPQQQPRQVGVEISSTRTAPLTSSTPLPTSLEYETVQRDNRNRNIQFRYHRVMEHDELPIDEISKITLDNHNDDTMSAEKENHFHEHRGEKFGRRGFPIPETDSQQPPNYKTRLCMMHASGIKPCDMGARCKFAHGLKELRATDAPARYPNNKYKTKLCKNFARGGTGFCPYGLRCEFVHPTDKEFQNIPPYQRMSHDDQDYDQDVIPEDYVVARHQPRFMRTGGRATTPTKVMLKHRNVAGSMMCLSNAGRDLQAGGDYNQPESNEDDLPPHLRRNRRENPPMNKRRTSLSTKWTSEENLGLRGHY

[4] = target: T2, RNA-binding protein pos-1 (Caenorhabditis elegans, UniProt G5EF15); test: inhibitors of POS-1/mex-3 RNA binding, dose response, biochemical, fluorescence polarization (AID 1964);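 also: purified POS-1 fused to maltose binding protein made in E. coli; potency of compounds blocking POS-1 binding to fluorescent RNA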
T2 sequence (G5EF15 whole entry): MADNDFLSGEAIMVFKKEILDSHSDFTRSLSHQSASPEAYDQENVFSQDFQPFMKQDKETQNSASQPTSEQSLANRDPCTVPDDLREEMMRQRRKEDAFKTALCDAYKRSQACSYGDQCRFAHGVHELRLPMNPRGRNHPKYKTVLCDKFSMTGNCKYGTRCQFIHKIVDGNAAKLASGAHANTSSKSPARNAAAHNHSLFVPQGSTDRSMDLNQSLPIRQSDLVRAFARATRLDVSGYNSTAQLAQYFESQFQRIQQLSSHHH

cells [5] = format: functional, cell-based
cells [6] = format: functional, cell-based; remark: listed apart in the source
[7] = target: Heat shock protein HSP 90-alpha (Homo sapiens, UniProt P07900); format: functional, organism-based
[8] = MC4R antagonists, dose response, counter-screen for LGR2 antagonist project, cell-based, plate reader, cherry pick (AID 743444); format: functional;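 also: transfected HEK 293 cells stimulated with alpha-MSH peptide; potency of inhibitors of the alpha-MSH evoked signal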
[9] = LGR2 antagonists, dose response, cell-based, HEK293, CRE-luciferase reporter, cherry pick, set 2 (AID 743343); format: functional;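 also: transfected cells were stimulated with diluted bursicon conditioned medium after compound addition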
[10] = target: Glyceraldehyde-3-phosphate dehydrogenase (Homo sapiens, UniProt P04406)
Chain of Glyceraldehyde-3-phosphate dehydrogenase (P04406 whole entry): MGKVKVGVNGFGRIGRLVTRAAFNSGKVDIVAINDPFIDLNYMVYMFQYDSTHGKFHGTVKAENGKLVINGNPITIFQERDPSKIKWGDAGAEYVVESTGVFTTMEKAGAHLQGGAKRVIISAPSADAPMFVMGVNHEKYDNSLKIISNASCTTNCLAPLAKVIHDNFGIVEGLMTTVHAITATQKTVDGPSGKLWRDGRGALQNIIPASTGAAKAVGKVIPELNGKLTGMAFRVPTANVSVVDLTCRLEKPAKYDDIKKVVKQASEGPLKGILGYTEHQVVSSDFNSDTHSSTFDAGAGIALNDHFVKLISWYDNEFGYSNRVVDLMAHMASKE

[11] = target: T3, High affinity choline transporter 1 (Homo sapiens, UniProt Q9GZV3); test: CHT inhibitors, dose response, cell-based, 5-point CRC, membrane potential dye (AID 504840); format: functional
T3 sequence (Q9GZV3 whole entry): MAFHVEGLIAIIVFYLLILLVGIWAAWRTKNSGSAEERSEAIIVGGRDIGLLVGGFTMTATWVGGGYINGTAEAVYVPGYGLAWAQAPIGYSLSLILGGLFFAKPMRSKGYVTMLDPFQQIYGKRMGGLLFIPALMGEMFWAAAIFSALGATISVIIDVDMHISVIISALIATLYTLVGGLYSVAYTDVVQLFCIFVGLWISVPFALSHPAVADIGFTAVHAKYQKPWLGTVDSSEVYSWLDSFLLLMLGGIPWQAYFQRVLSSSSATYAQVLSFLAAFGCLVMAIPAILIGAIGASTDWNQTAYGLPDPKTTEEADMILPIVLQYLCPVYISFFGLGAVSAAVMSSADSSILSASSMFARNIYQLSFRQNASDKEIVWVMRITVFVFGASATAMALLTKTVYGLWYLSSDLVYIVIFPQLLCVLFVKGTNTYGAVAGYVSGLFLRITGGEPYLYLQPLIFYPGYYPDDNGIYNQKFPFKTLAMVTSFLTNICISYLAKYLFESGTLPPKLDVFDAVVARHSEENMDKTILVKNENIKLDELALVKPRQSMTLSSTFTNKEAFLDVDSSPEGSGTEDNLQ

Streptococcus = test: Group A Streptococcus viability loss, dose response, counter-screen for streptokinase expression inhibitor project, luminescence, BacTiterGlo (AID 1915); format: functional, organism-based;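 also: potency for reduction of bacterial viability or growth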
Streptokinase A = target: T4, Streptokinase A (Streptococcus pyogenes serotype M1, UniProt P10520); test: S. pyogenes streptokinase expression inhibitors, potency, dose response, plasminogen activation absorbance, OD405 (AID 1914); format: functional, Streptococcus pyogenes M1 GAS;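 also: secreted streptokinase activity via plasminogen activation per viability signal from cell pellet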
T4 sequence (P10520 whole entry): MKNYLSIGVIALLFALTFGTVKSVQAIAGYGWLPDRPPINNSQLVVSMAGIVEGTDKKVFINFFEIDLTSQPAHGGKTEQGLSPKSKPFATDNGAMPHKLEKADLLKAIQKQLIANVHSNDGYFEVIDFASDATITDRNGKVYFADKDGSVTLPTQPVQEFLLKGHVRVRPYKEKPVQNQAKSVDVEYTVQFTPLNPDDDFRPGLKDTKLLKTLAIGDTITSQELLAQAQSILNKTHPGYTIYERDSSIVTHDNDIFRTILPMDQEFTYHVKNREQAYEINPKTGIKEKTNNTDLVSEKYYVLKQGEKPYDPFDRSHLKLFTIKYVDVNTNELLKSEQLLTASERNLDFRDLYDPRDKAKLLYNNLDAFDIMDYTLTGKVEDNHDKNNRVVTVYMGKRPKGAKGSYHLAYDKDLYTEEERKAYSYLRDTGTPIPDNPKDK

[12] = tested on: Streptococcus sp. 'group A'; test: growth inhibition of control SK(-) GAS strain, dose response, counter-screen for streptokinase expression inhibitor project, luminescence, kanamycin, BacTiterGlo, confirmation (AID 1900); format: functional, organism-based
Fatty acid synthase [13] = target: T5, Fatty acid synthase (Homo sapiens, UniProt P49327); test: FAS thioesterase domain inhibitors, dose response, biochemical, kinetic fluorescence intensity (AID 624326); format: functional;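 also: rate of fluorescence rise from hydrolysis of a fluorogenic O-methyl fluorescein ester substrate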
T5 sequence (P49327 whole entry, the tested form may be a part): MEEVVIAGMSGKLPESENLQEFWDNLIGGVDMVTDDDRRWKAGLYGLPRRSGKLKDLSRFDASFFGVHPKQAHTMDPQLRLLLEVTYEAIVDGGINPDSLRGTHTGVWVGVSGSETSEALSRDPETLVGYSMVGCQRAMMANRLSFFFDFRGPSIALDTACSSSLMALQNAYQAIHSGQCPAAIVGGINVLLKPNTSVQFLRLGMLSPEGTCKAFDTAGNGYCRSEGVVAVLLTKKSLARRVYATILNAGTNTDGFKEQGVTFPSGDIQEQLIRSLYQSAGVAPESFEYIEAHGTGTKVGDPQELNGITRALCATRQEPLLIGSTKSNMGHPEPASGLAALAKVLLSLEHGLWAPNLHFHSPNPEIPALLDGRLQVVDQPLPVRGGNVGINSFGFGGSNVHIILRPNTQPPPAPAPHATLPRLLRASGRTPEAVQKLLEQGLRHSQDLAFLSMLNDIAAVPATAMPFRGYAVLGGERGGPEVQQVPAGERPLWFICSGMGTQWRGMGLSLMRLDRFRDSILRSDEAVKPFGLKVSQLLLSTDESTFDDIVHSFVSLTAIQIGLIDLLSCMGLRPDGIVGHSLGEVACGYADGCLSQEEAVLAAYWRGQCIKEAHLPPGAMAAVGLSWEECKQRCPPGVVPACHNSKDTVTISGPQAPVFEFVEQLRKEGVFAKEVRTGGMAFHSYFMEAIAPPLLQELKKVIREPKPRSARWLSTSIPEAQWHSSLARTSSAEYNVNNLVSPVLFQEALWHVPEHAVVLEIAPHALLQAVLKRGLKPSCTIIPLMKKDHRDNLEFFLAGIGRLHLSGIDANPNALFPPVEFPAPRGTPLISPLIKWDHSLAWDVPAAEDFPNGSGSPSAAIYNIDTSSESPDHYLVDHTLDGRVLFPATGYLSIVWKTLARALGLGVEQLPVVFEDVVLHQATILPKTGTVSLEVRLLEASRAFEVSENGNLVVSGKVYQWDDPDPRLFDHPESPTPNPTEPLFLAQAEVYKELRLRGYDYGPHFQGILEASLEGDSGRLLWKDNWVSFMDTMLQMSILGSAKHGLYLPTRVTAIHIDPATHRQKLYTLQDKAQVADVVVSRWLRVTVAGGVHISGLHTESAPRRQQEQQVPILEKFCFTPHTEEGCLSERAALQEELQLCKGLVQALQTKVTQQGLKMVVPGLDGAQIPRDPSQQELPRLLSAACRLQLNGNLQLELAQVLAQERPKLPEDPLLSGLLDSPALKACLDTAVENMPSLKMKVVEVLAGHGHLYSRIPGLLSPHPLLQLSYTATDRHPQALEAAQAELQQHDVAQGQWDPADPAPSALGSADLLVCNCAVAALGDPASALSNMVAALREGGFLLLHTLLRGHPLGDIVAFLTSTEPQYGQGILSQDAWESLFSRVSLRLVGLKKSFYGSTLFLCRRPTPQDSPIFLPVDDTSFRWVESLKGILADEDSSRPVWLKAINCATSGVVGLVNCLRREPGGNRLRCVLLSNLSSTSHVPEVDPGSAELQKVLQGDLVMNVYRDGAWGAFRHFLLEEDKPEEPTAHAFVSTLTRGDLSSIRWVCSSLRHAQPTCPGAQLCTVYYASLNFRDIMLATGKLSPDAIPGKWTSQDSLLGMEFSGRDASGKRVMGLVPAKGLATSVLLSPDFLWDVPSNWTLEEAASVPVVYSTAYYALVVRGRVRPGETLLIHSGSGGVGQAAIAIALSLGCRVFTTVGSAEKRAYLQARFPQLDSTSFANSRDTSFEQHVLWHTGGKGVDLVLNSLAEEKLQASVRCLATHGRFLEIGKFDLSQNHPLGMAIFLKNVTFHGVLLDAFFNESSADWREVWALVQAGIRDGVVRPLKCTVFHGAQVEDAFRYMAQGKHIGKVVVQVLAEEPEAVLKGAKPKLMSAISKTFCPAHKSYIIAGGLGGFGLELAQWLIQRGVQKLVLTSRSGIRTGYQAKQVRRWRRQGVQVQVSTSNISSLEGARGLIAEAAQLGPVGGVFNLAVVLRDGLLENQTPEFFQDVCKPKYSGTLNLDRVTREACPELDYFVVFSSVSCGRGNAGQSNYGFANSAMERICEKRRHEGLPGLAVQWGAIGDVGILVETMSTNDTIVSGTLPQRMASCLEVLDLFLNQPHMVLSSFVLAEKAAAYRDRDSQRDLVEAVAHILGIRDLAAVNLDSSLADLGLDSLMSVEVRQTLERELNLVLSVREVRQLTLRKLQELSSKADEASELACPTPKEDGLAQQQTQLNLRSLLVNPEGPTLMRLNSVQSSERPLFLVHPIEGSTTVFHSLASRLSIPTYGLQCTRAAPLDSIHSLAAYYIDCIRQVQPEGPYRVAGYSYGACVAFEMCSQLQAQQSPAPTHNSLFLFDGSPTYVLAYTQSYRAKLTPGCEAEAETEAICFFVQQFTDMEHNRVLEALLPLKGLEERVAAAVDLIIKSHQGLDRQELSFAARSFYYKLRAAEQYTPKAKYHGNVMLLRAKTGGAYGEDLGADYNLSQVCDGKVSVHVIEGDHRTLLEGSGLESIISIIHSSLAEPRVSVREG

Fatty acid synthase [14] = target: T5, Fatty acid synthase; test: FAS thioesterase domain inhibitors, dose response, biochemical, endpoint fluorescence intensity, uHTS hits (AID 624327); format: functional;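 also: fluorescence from hydrolysis of an O-methyl fluorescein acyl ester substrate by the enzyme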
[15] = HEp-2 cell cytotoxicity, dose response, cytotoxicity control for RSV inhibitor project, HTS (AID 2410); format: functional; conditions: human respiratory syncytial virus
[16] = NIH-3T3 fibroblast cytotoxicity, dose response, cytotoxicity control, cell-based, fluorescence, Alamar Blue, secondary assay (AID 2327); format: functional;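 also: NIH-3T3 mouse fibroblasts cultured with fluconazole at 8 µg/mL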
[17] = THP-1 cell cytotoxicity, dose response, cytotoxicity control for non-replicating M. tuberculosis project (AID 489025); format: functional
cells [18] = format: functional
[19] = C. albicans growth with fluconazole, confirmation, fluorescence, retest (AID 2467); format: functional, cell-based
[20] = Vero E6 cell cytotoxicity, dose response, cytotoxicity control for non-replicating M. tuberculosis project, secondary assay (AID 492998); format: functional, VeroE6; conditions: Vero C1008
[21] = microbe, parasite or virus in culture; format: functional; conditions: Mycobacterium tuberculosis
[22] = Luminescence Cell-Based Dose Response HTS to Identify Activators of Luciferase Translation or Activity in H4 […] Cells. [Related pubchem assays: 1829 (Project Summary), 1814 (Primary HTS)]; format: functional
H4 = test: Luminescence Cell-Based Dose Response HTS to Identify Activators of 5'UTR Stem-Loop Driven Prion Protein mRNA Translation in H4 Neuroglioblastoma Cells. [Related pubchem assays: 1829 (Project Summary), 1814 (Primary HTS)]; format: functional; conditions: Homo sapiens

SMILES: COc1ccccc1C1=NOC(COc2ccc3c(C)cc(=O)oc3c2)C1 (stereo unspecified)
- AC50 [1]: 0.224 µM (active)
- IC50 [2]: > 80 µM (inactive)

SMILES: O=[N+]([O-])c1ccc(C2=Nc3cc(Cl)ccc3OC2)cc1
- EC50 [3]: > 300 µM (inconclusive)
- EC50 [4]: 90.7 µM (active)

SMILES: CCOc1cc(C2C(C#N)=C(N)OC3=C2C(=O)CC(C)(C)C3)cc([N+](=O)[O-])c1O (stereo unspecified)
- EC50 [3]: > 300 µM (not active)
- EC50 [4]: > 300 µM (not active)

SMILES: S=C(Nc1ccc(Cl)cc1)Nc1ccc2c[nH]nc2c1
- EC50 (cells [5]): > 350 µM (not active)
- EC50 (cells [6]): > 350 µM (not active)

SMILES: Cc1cccc(NC(=O)COc2cccc3c2CCN(C)C3=O)c1C
- EC50 (cells [5]): > 350 µM (not active)
- EC50 (cells [6]): > 350 µM (not active)

SMILES: COc1ccc(C2=CC3=C(Br)C(=O)C(C)(OC(=O)C4CCCC4)C(=O)C3=CO2)cc1 (stereo unspecified)
- AC50 [7]: 1.68 µM (active)
- EC50 [3]: > 300 µM (not active)
- EC50 [4]: 43.7 µM (active)

SMILES: Cc1csc(NC(=O)c2ccc(OCC3CCCO3)cc2)n1 (stereo unspecified)
- AC50 [8]: 1.96 µM (active)
- AC50 [9]: 2.55 µM (active)

SMILES: C[C@H]1CN(C2=C(Cl)C(=O)N(c3ccc(Cl)nc3)C2=O)CCN1
- IC50 [10]: > 50 µM (inconclusive)

SMILES: COc1ccc(OC)c(C2CC(=O)c3c([nH]c(C(=O)OC(C)C)c3C)C2)c1 (stereo unspecified)
- IC50 [2]: > 80 µM (inactive)

SMILES: CCOc1ccccc1NC(=O)CN(c1ccc(OC)cc1)S(=O)(=O)c1c(C)noc1C
- IC50 [2]: > 80 µM (inactive)

SMILES: COc1ccc(OC)c(/C=C2\SC(=S)N(NS(=O)(=O)c3ccccc3)C2=O)c1
- IC50 [11]: 8.71 µM (active)

SMILES: CCOC(=O)c1ccc(NC(=O)c2[nH]cnc2C(=O)N[C@@H](CCCCNC(=O)OC(C)(C)C)C(=O)OC(C)(C)C)cc1
- EC50 (Streptococcus): 55.6 µM (active)
- EC50 (Streptokinase A): > 150 µM (not active)
- EC50 [12]: 6.84 µM (active)
- IC50 (Fatty acid synthase [13]): 0.463 µM (active)
- IC50 (Fatty acid synthase [14]): 0.539 µM (active)

SMILES: O=C(Nc1ccccc1Br)C1CCCN1S(=O)(=O)c1cccc2nsnc12 (stereo unspecified)
- IC50 [11]: 13.8 µM (active)
- CC50 [15]: 33.1 µM (active)

SMILES: Nc1nc(-c2ccccc2)cn1/N=C/c1cccc([N+](=O)[O-])c1
- IC50 [10]: > 100 µM (not active)

SMILES: Cc1noc2ncnc(Sc3ccc(Cl)cc3)c12
- EC50 [16]: > 160 µM (inconclusive)
- CC50 [17]: 21.3 µM (active)
- IC50 (cells [18]): 8.82 µM (active)
- EC50 [19]: > 38 µM (not active)
- CC50 [20]: > 20 µM (active)
- CC50 [21]: 27.1 µM (active)

SMILES: O=C1C(Cl)=C(N2CCN(Cc3ccccc3)CC2)C(=O)N1c1cccc(C(F)(F)F)c1
- IC50 [10]: > 50 µM (inconclusive)

SMILES: Cc1cc(C)c2nc(-n3nc(C)cc3N)cc(C)c2c1
- EC50 [22]: 32.5 µM (active)
- EC50 (H4): 1.71 µM (active)
